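Values below derive from 48-hour exposures of cells grown in 96-well plates, with endpoints linearly interpolated between the two concentrations bracketing the appropriate inhibition level. The concentration for full growth arrest is given as TGI.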
Legend:
Assay in all cases: growth of human tumour cells (NCI), 48 h
HCT-15 colon = tested on: HCT-15 colon
HOP-92 NSCLC = tested on: HOP-92 NSCLC
SK-MEL-28 melanoma = tested on: SK-MEL-28 melanoma
SK-MEL-5 melanoma = tested on: SK-MEL-5 melanoma
UACC-257 melanoma = tested on: UACC-257 melanoma
T-47D breast = tested on: T-47D breast
COLO 205 colon = tested on: COLO 205 colon
DU-145 prostate = tested on: DU-145 prostate
A549 NSCLC = tested on: A549 NSCLC
ACHN renal = tested on: ACHN renal
TK-10 renal = tested on: TK-10 renal
OVCAR-4 ovarian = tested on: OVCAR-4 ovarian
K-562 leukemia = tested on: K-562 leukemia
IGROV1 ovarian = tested on: IGROV1 ovarian
HCT-116 colon = tested on: HCT-116 colon
PC-3 prostate = tested on: PC-3 prostate
SF-268 CNS = tested on: SF-268 CNS
SK-MEL-2 melanoma = tested on: SK-MEL-2 melanoma
OVCAR-5 ovarian = tested on: OVCAR-5 ovarian
NCI/ADR-RES ovarian = tested on: NCI/ADR-RES ovarian
SN12C renal = tested on: SN12C renal
CAKI-1 renal = tested on: CAKI-1 renal
HOP-62 NSCLC = tested on: HOP-62 NSCLC
MDA-MB-231 breast = tested on: MDA-MB-231 breast
MCF7 breast = tested on: MCF7 breast
SF-539 CNS = tested on: SF-539 CNS
NCI-H23 lung = tested on: NCI-H23 lung
MALME-3M melanoma = tested on: MALME-3M melanoma
KM12 colon = tested on: KM12 colon
SF-295 CNS = tested on: SF-295 CNS
U251 CNS = tested on: U251 CNS
786-0 renal = tested on: 786-0 renal
A498 renal = tested on: A498 renal
NCI-H522 lung = tested on: NCI-H522 lung
RPMI-8226 leukemia = tested on: RPMI-8226 leukemia
SR leukemia = tested on: SR leukemia
SW-620 colon = tested on: SW-620 colon
EKVX NSCLC = tested on: EKVX NSCLC
SNB-19 CNS = tested on: SNB-19 CNS
LOX IMVI melanoma = tested on: LOX IMVI melanoma
OVCAR-8 ovarian = tested on: OVCAR-8 ovarian
RXF 393 renal = tested on: RXF 393 renal
SNB-75 CNS = tested on: SNB-75 CNS
MDA-N = tested on: MDA-N
UACC-62 melanoma = tested on: UACC-62 melanoma
NCI-H460 lung = tested on: NCI-H460 lung
HS 578T breast = tested on: HS 578T breast
UO-31 renal = tested on: UO-31 renal
MDA-MB-435 = tested on: MDA-MB-435
MOLT-4 leukemia = tested on: MOLT-4 leukemia
CCRF-CEM leukemia = tested on: CCRF-CEM leukemia
HT29 colon = tested on: HT29 colon
SK-OV-3 ovarian = tested on: SK-OV-3 ovarian
OVCAR-3 ovarian = tested on: OVCAR-3 ovarian
M14 melanoma = tested on: M14 melanoma
BT-549 breast = tested on: BT-549 breast
NCI-H226 lung = tested on: NCI-H226 lung
HL-60(TB) leukemia = tested on: HL-60(TB) leukemia

Measured: TGI

O=C(O)c1nnsc1COCc1ccccc1
> 100 µM: HCT-15 colon | HOP-92 NSCLC | SK-MEL-28 melanoma | SK-MEL-5 melanoma | UACC-257 melanoma | T-47D breast | COLO 205 colon | DU-145 prostate | A549 NSCLC | ACHN renal | TK-10 renal | OVCAR-4 ovarian | K-562 leukemia | IGROV1 ovarian | HCT-116 colon | PC-3 prostate | SF-268 CNS | SK-MEL-2 melanoma | OVCAR-5 ovarian | NCI/ADR-RES ovarian | SN12C renal | CAKI-1 renal | HOP-62 NSCLC | MDA-MB-231 breast | MCF7 breast | SF-539 CNS | NCI-H23 lung | MALME-3M melanoma | KM12 colon | SF-295 CNS | U251 CNS | 786-0 renal | A498 renal | NCI-H522 lung | RPMI-8226 leukemia | SR leukemia | SW-620 colon | EKVX NSCLC | SNB-19 CNS | LOX IMVI melanoma | OVCAR-8 ovarian | RXF 393 renal | SNB-75 CNS | MDA-N | UACC-62 melanoma | NCI-H460 lung | HS 578T breast | UO-31 renal | MDA-MB-435 | MOLT-4 leukemia | CCRF-CEM leukemia | HT29 colon | SK-OV-3 ovarian | OVCAR-3 ovarian | M14 melanoma | BT-549 breast

Cc1ccc2[nH]c(=O)c(-c3cnc(=O)[nH]n3)c(O)c2c1
> 100 µM: HCT-15 colon | SK-MEL-28 melanoma | SK-MEL-5 melanoma | UACC-257 melanoma | T-47D breast | COLO 205 colon | DU-145 prostate | A549 NSCLC | ACHN renal | TK-10 renal | OVCAR-4 ovarian | K-562 leukemia | IGROV1 ovarian | NCI-H226 lung | HCT-116 colon | PC-3 prostate | SF-268 CNS | SK-MEL-2 melanoma | OVCAR-5 ovarian | NCI/ADR-RES ovarian | SN12C renal | CAKI-1 renal | HOP-62 NSCLC | MDA-MB-231 breast | MCF7 breast | SF-539 CNS | NCI-H23 lung | MALME-3M melanoma | KM12 colon | SF-295 CNS | U251 CNS | 786-0 renal | A498 renal | RPMI-8226 leukemia | SR leukemia | SW-620 colon | EKVX NSCLC | LOX IMVI melanoma | OVCAR-8 ovarian | RXF 393 renal | SNB-75 CNS | MDA-N | UACC-62 melanoma | NCI-H460 lung | HS 578T breast | UO-31 renal | MDA-MB-435 | MOLT-4 leukemia | CCRF-CEM leukemia | HT29 colon | SK-OV-3 ovarian | OVCAR-3 ovarian | HL-60(TB) leukemia | M14 melanoma | BT-549 breast
